Source: patent US5120764A, “Inhibitors of lysyl oxidase” (Merrell Dow Pharmaceuticals Inc., priority 1988, dated 1992)
Structures can show the parent of a compound that is named as a salt.

Molecular target: T1, lysyl oxidase (Bos taurus, UniProt P33072)
T1 sequence (P33072 170-418): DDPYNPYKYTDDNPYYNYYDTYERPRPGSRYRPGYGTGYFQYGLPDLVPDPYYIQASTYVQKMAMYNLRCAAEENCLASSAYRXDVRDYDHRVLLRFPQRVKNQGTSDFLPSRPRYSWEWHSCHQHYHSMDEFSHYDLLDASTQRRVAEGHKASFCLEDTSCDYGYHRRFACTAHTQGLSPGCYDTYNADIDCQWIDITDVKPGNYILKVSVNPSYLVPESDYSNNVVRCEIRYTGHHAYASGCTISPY
Test: Lysyl oxidase inhibition (fluorometric assay, cadaverine substrate, horseradish peroxidase/homovanillic acid)
Type: biochemical
Settings: lysyl oxidase preparation from bovine aorta, 55° C., 10 minutes, pH 8.2 borate buffer, read-out: IC50 (concentration of test compound required to inhibit the enzyme activity by 50 percent)
Method: Lysyl oxidase preparation is obtained from bovine aorta by the procedures modified from M. A. Williams and H. M. Kagan, Anal. Biochem. 149, 430-437 (1985) and H. M. Kagan and K. A. Sullivan, Methods in Enzyml. 82, 637-650 (1982). The aorta is obtained fresh on the day of the enzyme preparation and is maintained at 4° C. for the duration of its use in the experiments. The aorta is ground fine and is homogenized for 90 seconds in buffer (2.5 ml of a buffer consisting of 16 mM potassium phosphate and 1 mM phenylmethylsulfonyl fluoride/g of tissue) with 0.15M NaCl added, then the mixture is centrifuged (20 minutes at 11,000×g). The homogenization followed by centrifugation procedure is repeated with buffer plus 0.15 M NaCl, buffer alone, and buffer plus 1M urea. After homogenization in 1M urea, the mixture is stirred for 1 hour prior to centrifugation. The resulting pellet is homogenized in buffer plus 4M urea, stirred for 18 hours, and centrifuged. The supernatant with lysyl oxidase activity is saved. The tissue is homogenized in buffer plus 4M urea, stirred overnight, and centrifuged twice more. The supernatants with lysyl oxidase activity are saved.
The assay is adopted from that of P. C. Trackman, et al., Anal. Biochem. 113, 336-342 (1981). Each assay consists of two tubes, one that contains 0.2 mM β-aminopropionitrile, BAPN, from the start and one to which BAPN is added to quench the reaction. Lysyl oxidase preparation (0.150 ml), urea (0.300 ml, 4M), buffer (0.930 ml, 200 mM borate at pH =8.2), homovanillic acid (0.020 ml of 50 mM solution), and horseradish peroxidase (0.010 ml of Sigma Type II at 5 mg/ml protein) are incubated for 2 minutes at 55° C. in a test tube. Cadaverine (0.100 ml of 150 mM) and test compound, if any, is added and the incubation continued at 55° C. for an additional 10 minutes. The test tubes containing this mixture are then cooled in a ice bath after adding BAPN to any tubes not containing it. The difference in fluorescence (excitation 315 nm and emission 425 nm) between corresponding tubes that received BAPN at 0 minutes and at 10 minutes is a measure of enzyme activity. A standard curve to determine the amount of cadaverine converted by lysyl oxidase is prepared as follows. Assay mixtures containing BAPN are made up as described and known amounts of hydrogen peroxide are added simultaneously with cadaverine and the fluorescence changes after 10 minutes reaction are determined.
Using this method the lysyl oxidase inhibiting activity expressed as IC50 (inhibitory concentration), that is the concentration of test compound required to inhibit the enzyme activity by 50 percent, was determined for various compounds of this invention.

Row | Compound | IC50
1 | C=C=C(CN)c1cccs1 [β-Ethenylidene-2-Thiopheneethanamine-4-Methylbenzenesulfonate] | 10 nM
2 | C=C=C(CN)c1ccc(OC)cc1 [β-Ethenylidene-4-Methoxybenzeneethanamine-4-Methylbenzenesulfonate] | 10 nM
3 | C=C=C(CN)c1cc2ccccc2s1 [β-Ethylenylidene-Benzo[β]Thiophene-2-Ethanamine Hydrochloride] | 10 nM

The next compounds have a lower IC50 than those just listed; values first:

Row | IC50 | Compound
4 | 1 nM | C=C=C(CN)CCCCCC [β-Ethenylidene-1-Octanamine Hydrochloride]
5 | 1 nM | C=C=C(CN)CCc1ccccc1 [β-Ethenylidenebenzenebutanamine Hydrochloride]
6 | 1 nM | C=C=C(CN)CCCc1ccccc1 [β-Ethenylidenebenzenepentanamine Hydrochloride]
